Columns and labels:
[1] = system: recombinant human anti-SARS-CoV antibody 03-018; assay type: binding; set-up: Binding of antibody 03-018 to linear peptides of the N protein of SARS-CoV Urbani / Binding of antibody 03-018 to looped/cyclic peptides of the N protein of SARS-CoV Urbani: unit not given here
[2] = system: rabbit serum obtained by immunizing a rabbit with the SARS-CoV strain Frankfurt 1; assay type: binding; set-up: Binding of a rabbit serum to linear peptides / Binding of a rabbit serum to looped peptides / Rabbit serum linear peptides / Rabbit serum looped peptides / Binding of a rabbit serum to linear peptides of protein N of SARS-CoV Urbani (Rabbit serum linear peptides) / Binding of a rabbit serum to looped/cyclic peptides of protein N of SARS-CoV Urbani (Rabbit serum looped peptides): unit not given here
[3] = system: control sera (pooled serum of ten healthy LUMC hospital workers; commercial negative donor pooled serum from the Dutch bloodbank); assay type: binding, human; set-up: Binding of Control serum LUMC to linear peptides / Binding of Control serum Blood-bank to linear peptides / Binding of Control serum LUMC to looped peptides / Binding of Control Serum Blood-Bank to Looped peptides / Binding of Control serum LUMC to linear peptides of the protein M of SARS-CoV Urbani / Binding of Control serum Blood-bank to linear peptides of the protein M of SARS-CoV Urbani / Binding of Control serum LUMC to looped peptides of the protein M of SARS-CoV Urbani / Binding of Control Serum Blood-Bank to Looped peptides of the protein M of SARS-CoV Urbani: unit not given here
[4] = system: antibodies in sera from SARS patients (sera 1a, 1b, 2, 6, 37, 62, London, SARS-yellow, SARS-green); assay type: binding, human; set-up: Binding of serum 6 to linear peptides of protein X1 of SARS-CoV Urbani / Binding of serum 37 to linear peptides of protein X1 of SARS-CoV Urbani / Binding of serum 6 to looped/cyclic peptide (PEPSCAN-ELISA) / Binding of serum 37 to looped/cyclic peptide (PEPSCAN-ELISA) / Binding of serum 37 to looped/cyclic peptides of protein X1 of SARS-CoV Urbani / Binding of serum 6 to linear peptides of protein X2 / Binding of serum 37 to linear peptides of protein X2 / Binding of serum 37 to looped/cyclic peptides of protein X2 of SARS-CoV Urbani / Binding of serum 6 to linear peptides of protein M of SARS-CoV Urbani / Binding of serum 37 to linear peptides of protein M of SARS-CoV Urbani / Binding of serum 6 to looped/cyclic peptides of protein M of SARS-CoV Urbani / Binding of serum 37 to looped/cyclic peptides of protein M of SARS-CoV Urbani / Binding of serum 6 to linear peptides of protein X3 of SARS-CoV Urbani / Binding of serum 37 to linear peptides of protein X3 of SARS-CoV Urbani / Binding of serum 37 to looped/cyclic peptides of protein X3 of SARS-CoV Urbani / Binding of serum 6 to linear peptides of protein X4 of SARS-CoV Urbani / Binding of serum 37 to linear peptides of protein X4 of SARS-CoV Urbani / Binding of serum 37 to looped/cyclic peptides of protein X4 of SARS-CoV Urbani / Binding of serum 6 to linear peptides of protein X5 of SARS-CoV Urbani / Binding of serum 37 to linear peptides of protein X5 of SARS-CoV Urbani / Binding of serum 37 to looped/cyclic peptides of protein X5 of SARS-CoV Urbani / Binding of serum 6 to linear peptides of protein N of SARS-CoV Urbani / Binding of serum 37 to linear peptides of protein N of SARS-CoV Urbani / Binding of serum 6 to linear peptide (PEPSCAN-ELISA) / Binding of serum 1a to looped/cyclic peptides of protein N of SARS-CoV Urbani / Binding of serum 1b to looped/cyclic peptides of protein N of SARS-CoV Urbani / Binding of serum 2 to looped/cyclic peptides of protein N of SARS-CoV Urbani / Binding of serum 6 to looped/cyclic peptides of protein N of SARS-CoV Urbani / Binding of serum 37 to looped/cyclic peptides of protein N of SARS-CoV Urbani / Binding of serum 62 to looped/cyclic peptides of protein N of SARS-CoV Urbani / Binding of serum London to looped/cyclic peptides of protein N of SARS-CoV Urbani / Binding of serum SARS-green to looped/cyclic peptides of protein N of SARS-CoV Urbani: unit not given here

| Sequence | Binding of antibody 03-018 to linear peptides of the N protein of SARS-CoV Urbani [1] | Binding of antibody 03-018 to looped/cyclic peptides of the N protein of SARS-CoV Urbani [1] | Binding of a rabbit serum to linear peptides of protein N of SARS-CoV Urbani (Rabbit serum linear peptides) [2] | Binding of a rabbit serum to looped/cyclic peptides of protein N of SARS-CoV Urbani (Rabbit serum looped peptides) [2] | Binding of Control Serum Blood-Bank to Looped peptides [3] | Binding of Control serum Blood-bank to linear peptides [3] | Binding of Control serum LUMC to linear peptides [3] | Binding of Control serum LUMC to looped peptides [3] | Binding of serum 1a to linear peptide (PEPSCAN-ELISA) [4] | Binding of serum 1a to looped/cyclic peptides of protein N of SARS-CoV Urbani [4] | Binding of serum 1b to linear peptide (PEPSCAN-ELISA) [4] | Binding of serum 1b to looped/cyclic peptides of protein N of SARS-CoV Urbani [4] | Binding of serum 2 to linear peptide (PEPSCAN-ELISA) [4] | Binding of serum 2 to looped/cyclic peptides of protein N of SARS-CoV Urbani [4] | Binding of serum 6 to looped/cyclic peptides of protein N of SARS-CoV Urbani [4] | Binding of serum 37 to looped/cyclic peptides of protein N of SARS-CoV Urbani [4] | Binding of serum 62 to looped/cyclic peptides of protein N of SARS-CoV Urbani [4] | Binding of serum London to looped/cyclic peptides of protein N of SARS-CoV Urbani [4] | Binding of serum SARS-green to looped/cyclic peptides of protein N of SARS-CoV Urbani [4] | Binding of serum SARS-yellow to looped/cyclic peptides of protein N of SARS-CoV Urbani [4] | other results |
| --- | --- | --- | --- | --- | --- | --- | --- | --- | --- | --- | --- | --- | --- | --- | --- | --- | --- | --- | --- | --- | --- |
| SSRSSSRSRGNSRNS | 0.1 | 0.2 | 0.2 | 0.7 | 0.7 | 0.7 | 0.7 | 0.7 | 0.2 | 0.3 | 0.1 | 0.3 | 0.2 | 0.4 | 0.3 | 0.5 | 0.6 | 0.5 | 0.3 | 0.4 | Binding of serum 6 to linear peptide (PEPSCAN-ELISA) [4]: 0.2; Binding of serum 37 to linear peptide (PEPSCAN-ELISA) [4]: 0.5; Binding of serum 62 to linear peptide (PEPSCAN-ELISA) [4]: 0.6; Binding of serum London to linear peptide (PEPSCAN-ELISA) [4]: 0.5; Binding of serum SARS-green to linear peptide (PEPSCAN-ELISA) [4]: 0.3; Binding of serum SARS-yellow to linear peptide (PEPSCAN-ELISA) [4]: 0.7 |
| SSSRSRGNSRNSTPG | 0.1 | 0.2 | 0.1 | 0.4 | 0.5 | 0.7 | 0.6 | 0.5 | 0.4 | 0.2 | 0.2 | 0.1 | 0.2 | 0.3 | 0.2 | 0.4 | 0.3 | 0.3 | 0.1 | 0.1 | Binding of serum 6 to linear peptide (PEPSCAN-ELISA) [4]: 0.1; Binding of serum 37 to linear peptide (PEPSCAN-ELISA) [4]: 0.5; Binding of serum 62 to linear peptide (PEPSCAN-ELISA) [4]: 0.5; Binding of serum London to linear peptide (PEPSCAN-ELISA) [4]: 0.5; Binding of serum SARS-green to linear peptide (PEPSCAN-ELISA) [4]: 0.2; Binding of serum SARS-yellow to linear peptide (PEPSCAN-ELISA) [4]: 0.6 |
| STDNNQNGGRNGARP | 0.2 | 0.2 | 0.1 | 0.2 | 0.5 | 0.7 | 0.6 | 0.5 |  | 0.3 |  | 0.2 |  | 0.3 | 0.2 | 0.5 | 0.2 | 0.3 | 0.4 | 0.3 | Binding of serum 1a to linear peptides of protein N of SARS-CoV Urbani [4]: 0.2; Binding of serum 1b to linear peptides of protein N of SARS-CoV Urbani [4]: 0.1; Binding of serum 2 to linear peptides of protein N of SARS-CoV Urbani [4]: 0.2; Binding of serum 6 to linear peptides of protein N of SARS-CoV Urbani [4]: 0.1; Binding of serum 37 to linear peptides of protein N of SARS-CoV Urbani [4]: 0.8; Binding of serum 62 to linear peptides of protein N of SARS-CoV Urbani [4]: 0.7; Binding of serum London to linear peptides of protein N of SARS-CoV Urbani [4]: 0.5; Binding of serum SARS-green to linear peptides of protein N of SARS-CoV Urbani [4]: 0.4; Binding of serum SARS-yellow to linear peptides of protein N of SARS-CoV Urbani [4]: 0.6 |

Reference: patent US20070128217A1 (priority 2003, published 2007)
